ChEMBL document CHEMBL1158887, “Novel chromone derivatives from the fungus Aspergillus versicolor isolated from the marine sponge Xestospongia exigua” (J Nat Prod, 2003)
Calls of active or inactive are those of the source. No cut-off for these calls is given here.

Key:
Assay type in all cases: functional, organism-based
Saccharomyces cerevisiae = test: Antimicrobial activity against Saccharomyces cerevisiae DMS 1333 at 5 and 10 ug after 24 hrs by agar diffusion method
Escherichia coli = test: Antimicrobial activity against Escherichia coli DMS 10290 at 5 and 10 ug after 24 hrs by agar diffusion method
Bacillus subtilis = test: Antimicrobial activity against Bacillus subtilis DMS 2109 at 5 and 10 ug after 24 hrs by agar diffusion method

Row | Compound | Activity (Saccharomyces cerevisiae) | Activity (Escherichia coli) | Activity (Bacillus subtilis)
1 | Cc1cc2ccc3c(=O)c(C)c(C)oc3c2cn1 | inactive | inactive | –
2 | COC1(C)Cc2ccc3c(=O)c(C)c(C)oc3c2CO1 (stereo not drawn) | inactive | inactive | inactive
3 | COC1OC(C)=Cc2ccc3c(=O)c(C)c(C)oc3c21 (stereo not drawn) | inactive | inactive | inactive
